Assay results taken from ChEMBL document CHEMBL5096164, “In Vivo Profiling of a Natural Alkaloid, Anatabine, in Rodents: Pharmacokinetics and Anti-Inflammatory Efficacy” (J Nat Prod, 2021).

Columns and labels:
[1] = system: Mus musculus; assay: Antiinflammatory activity in LPS induced mouse model assessed as reduction in tumor necrosis factor alpha level in plasma at 1 mg/kg, po preincubated for 1 hr followed by LPS stimulation and measured after 2 hrs by ELISA method relative to control; type: functional; parameters: scale not given: the % may be the effect or the level left; conditions: time 3 hrs
[2] = system: Mus musculus; assay: Antiinflammatory activity in LPS induced mouse model assessed as reduction in IL-6 level in plasma at 1 mg/kg, po preincubated for 1 hr followed by LPS stimulation and measured after 2 hrs by ELISA method relative to control; type: functional; parameters: scale not given: the % may be the effect or the level left; conditions: time 3 hrs

C[C@@H]1C[C@H]2[C@@H]3CCC4=CC(=O)C=C[C@]4(C)[C@@]3(F)[C@@H](O)C[C@]2(C)[C@@]1(O)C(=O)CO [DEXAMETHASONE]
Activity [1]: 72.1%
Activity [2]: 46.9%
